Assay results from PubChem BioAssay AID2060505 (Molecular Pharmacology Branch, DTP, NCI, 2025).
Several values for one entry are separate records, joined by “and”; a condition that tells them apart may be missing. Identical values can stand only once.

Tested on: 633275-114-R-J1-PDC complex spheroids, viability
Test: Anticancer human tumor 633275-114-R-J1-PDC patient-derived endometrial adenocarcinoma cell line growth inhibition [GQUAD]
Settings: for viability, T/C: stronger effect = lower value; active = viability on the fitted dose curve at most 10% of control; inactive = the rest
Source text: DNA G-quadruplex Stabilizer Agents in Combinations in Complex Spheroids
A high-throughput screen of multi-cell type tumor spheroids was designed to identify active combinations of DNA G-quadruplex stabilizer agents and targeted small molecules. Complex spheroids include a stromal component modeled by human endothelial cells (HUVEC) and fibroblasts modeled by human mesenchymal stem cells (MSCs). The concentration ranges selected for each drug and investigational agent were based upon clinically achievable concentrations if the clinical Cmax of the agent was known.
Compounds. The drugs and investigational agents: pidnarulex (CX-5461; NSC782164), APTO-253 (NSC789042), BRACO-19 (NSC847499), peposertib (NSC802822), ceralasertib (NSC780249), elimusertib (NSC800525), camonsertib (NSC841442), AZD-1390 (NSC803789), olaparib (NSC753686), talazoparib (NSC767125), ART-558 (NSC835418), sotorasib (NSC818433), MRTX-1133 (NSC836407), SN-38 (NSC673596), topotecan (NSC609699), etoposide (NSC141540), doxorubicin (NSC123127), gemcitabine (NSC613327), 5-fluorouracil (NSC19893), paclitaxel (NSC125973), vemurafenib (NSC761431), panobinostat (NSC761190), R-306465 (JNJ-16241199; NSC773264), adavosertib (NSC754352), TP-3654 (NSC805149), carboplatin (NSC241240), KSQ-4279 (NSC840948), and staurosporine (NSC755774) were obtained from the National Cancer Institute (NCI) Developmental Therapeutics Program Chemical Repository (34). The FDA-approved anticancer drug set is available from the NCI Developmental Therapeutics Program. […] The stock solutions were prepared in dimethyl sulfoxide (DMSO, Sigma-Aldrich, St. Louis, MO, cat. D2650) at 800-fold the tested concentration and stored at -70 degrees C prior to their use. All drugs and investigational agents were tested over a range starting from a high concentration at or near the clinical Cmax and decreasing in half-log increments. If the clinical Cmax for an agent had not been determined, the highest concentration tested was 10 microM.
2.3 Cell Culture. All cells were maintained in an incubator at 37 degrees C and 5% CO2 with 95% humidity. The PDC lines were cultured according to standard operating procedures established by the NCI PDMR. All PDCs were thawed and cultured in Matrigel-coated flasks prepared with a working solution of 1X Ham's F-12 nutrient mix, without supplementation (Invitrogen, cat. 11765054), 100 U/mL penicillin-streptomycin (Invitrogen, cat. 15140122), and 2.5% Matrigel (Corning Inc., cat. 354248) for the first three passages. The 857933-349-R-J2-PDC line was cultured in 6C/Colon 1B media, which includes advanced DMEM/F-12 (Thermo Fisher Scientific, cat. 12634028), 10 mM HEPES (Thermo Fisher Scientific, cat. 15630080), 1X GlutaMAX supplement (Thermo Fisher Scientific, cat. 35050061), 0.1 mg/mL primocin (InvivoGen, cat. ant-pm-2), 10% defined fetal bovine serum, heat inactivated (HyClone Laboratories Inc., cat. SH30070.03HI), 50% L-WRN conditioned media (ATCC, cat. CRL-3276), 1.25 mM N-Acetyl-L-cysteine (Sigma-Aldrich, cat. A9165), 10 mM nicotinamide (Sigma-Aldrich, cat. N0636), 1X B-27 supplement (Thermo Fisher Scientific, cat. 17504044), 1X N-2 supplement (Thermo Fisher Scientific, cat. 17502048), 10 microM Y-27632 dihydrochloride (Tocris Bioscience, cat. 1254), and 50 ng/mL human EGF recombinant protein (Thermo Fisher Scientific, cat. PHG0311). The 485176-168-R4-J1-PDC line was cultured in Panc media, which includes all 6C/Colon 1B media components plus 100 ng/mL human FGF-10 (Thermo Fisher Scientific, cat. 100-26), 500 nM SB-431542 (Selleckchem, cat. S1067), and gastrin (Tocris, cat. 3006).
[…]

[1] = curve of first compound, second compound 0.0316 µM
[2] = curve of first compound, second compound 0.1 µM
[3] = curve of first compound, second compound 0.316 µM
[4] = curve of first compound, second compound 1 µM
[5] = curve of first compound, second compound 3.16 µM
[6] = curve of first compound, second compound 10 µM
[7] = second compound 0.0316 µM, first compound 0.0316 µM
[8] = second compound 0.0316 µM, first compound 0.1 µM
[9] = second compound 0.0316 µM, first compound 0.316 µM
[10] = second compound 0.0316 µM, first compound 1 µM
[11] = second compound 0.0316 µM, first compound 3.16 µM
[12] = second compound 0.0316 µM, first compound 10 µM
[13] = second compound 0.1 µM, first compound 0.0316 µM
[14] = second compound 0.1 µM, first compound 0.1 µM
[15] = second compound 0.1 µM, first compound 0.316 µM
[16] = second compound 0.1 µM, first compound 1 µM
[17] = second compound 0.1 µM, first compound 3.16 µM
[18] = second compound 0.1 µM, first compound 10 µM
[19] = second compound 0.316 µM, first compound 0.0316 µM
[20] = second compound 0.316 µM, first compound 0.1 µM
[21] = second compound 0.316 µM, first compound 0.316 µM
[22] = second compound 0.316 µM, first compound 1 µM
[23] = second compound 0.316 µM, first compound 3.16 µM
[24] = second compound 0.316 µM, first compound 10 µM
[25] = second compound 1 µM, first compound 0.0316 µM
[26] = second compound 1 µM, first compound 0.1 µM
[27] = second compound 1 µM, first compound 0.316 µM
[28] = second compound 1 µM, first compound 1 µM
[29] = second compound 1 µM, first compound 3.16 µM
[30] = second compound 1 µM, first compound 10 µM
[31] = second compound 3.16 µM, first compound 0.0316 µM
[32] = second compound 3.16 µM, first compound 0.1 µM
[33] = second compound 3.16 µM, first compound 0.316 µM
[34] = second compound 3.16 µM, first compound 1 µM
[35] = second compound 3.16 µM, first compound 3.16 µM
[36] = second compound 3.16 µM, first compound 10 µM
[37] = second compound 10 µM, first compound 0.0316 µM
[38] = second compound 10 µM, first compound 0.1 µM
[39] = second compound 10 µM, first compound 0.316 µM
[40] = second compound 10 µM, first compound 1 µM
[41] = second compound 10 µM, first compound 3.16 µM
[42] = second compound 10 µM, first compound 10 µM
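Note: spheroids exposed to the agents for seven days.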
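Throughout, for viability, T/C: percent of DMSO vehicle control viability which is 100%.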

CC1COCCN1c1cc(C2(S(C)(=N)=O)CC2)nc(-c2ccnc3[nH]ccc23)n1 (centres undefined) + Cc1[nH]c2ccc(F)cc2c1-c1nc2c3cccnc3c3ncccc3c2[nH]1
3.46 µM: IC50 [1]
3.55 µM: IC50 [3]
3.07 µM: IC50 [2]
1.38 µM: IC50 [6]
3.24 µM: IC50 [4]
inactive: viability, T/C [7] 105% | viability, T/C [8] 96.1% | viability, T/C [9] 98.3% | viability, T/C [10] 73.9% | viability, T/C [11] 52.6% | viability, T/C [12] 33.8% | viability, T/C [13] 97.3% | viability, T/C [14] 99.9% | viability, T/C [15] 96.4% | viability, T/C [16] 78.5% | viability, T/C [17] 49.8% | viability, T/C [18] 33.2% | viability, T/C [19] 102% | viability, T/C [20] 97.5% | viability, T/C [21] 90.5% | viability, T/C [22] 81.6% | viability, T/C [23] 50.4% | viability, T/C [24] 33.5% | viability, T/C [25] 90.9% | viability, T/C [26] 92.8% | viability, T/C [27] 87.6% | viability, T/C [28] 73% | viability, T/C [29] 50.7% | viability, T/C [30] 34.3% | viability, T/C [31] 73.7% | viability, T/C [32] 76.4% | viability, T/C [33] 69.9% | viability, T/C [34] 52.6% | viability, T/C [35] 38.4% | viability, T/C [36] 30.3% | viability, T/C [37] 71.7% | viability, T/C [38] 71.5% | viability, T/C [39] 67% | viability, T/C [40] 54.7% | viability, T/C [41] 37.6% | viability, T/C [42] 27.2%
1.29 µM: IC50 [5]

CCc1c2c(nc3ccc(O)cc13)-c1cc3c(c(=O)n1C2)COC(=O)[C@]3(O)CC
inactive: viability, T/C (compound 0.000999 µM) 72.9% and 83.1% and 65.5% | viability, T/C (compound 0.00316 µM) 47.6% and 49.1% and 47% | viability, T/C (compound 0.00999 µM) 36.6% and 36.4% and 38.1% | viability, T/C (compound 0.0316 µM) 32.8% and 34.7% and 35.9% | viability, T/C (compound 0.0999 µM) 30% and 24.7% and 28.8% | viability, T/C (compound 0.316 µM) 23.7% (2×) and 24.4%
0.00299 µM and 0.0035 µM and 0.00294 µM: IC50 (curve of compound)

CC1COCCN1c1cc(C2(S(C)(=N)=O)CC2)nc(-c2ccnc3[nH]ccc23)n1 (centres undefined)
3.02 µM and 3.22 µM and 6.63 µM: IC50 (curve of compound)
inactive: viability, T/C (compound 0.0316 µM) 94.8% and 102% and 108% | viability, T/C (compound 0.1 µM) 97.4% and 89.5% and 94.1% | viability, T/C (compound 0.316 µM) 98.2% and 98.4% and 91.8% | viability, T/C (compound 1 µM) 79.9% and 72.7% and 79.3% | viability, T/C (compound 3.16 µM) 49.4% and 51.8% and 86.4% | viability, T/C (compound 10 µM) 31% and 33.7% and 32.8%

Cc1cccc(N(C)C(=O)C2C(O)CCN2c2nc(C)cc(C(F)(F)F)c2C#N)c1 (centres undefined)
inactive: viability, T/C (compound 0.0316 µM) 104% and 106% and 102% | viability, T/C (compound 0.1 µM) 87.3% and 93.7% and 107% | viability, T/C (compound 0.316 µM) 96.6% and 105% and 93% | viability, T/C (compound 1 µM) 99.8% and 93.9% and 87.2% | viability, T/C (compound 3.16 µM) 104% and 103% and 98.8% | viability, T/C (compound 10 µM) 96.2% and 95.4% and 92.5%
> 10 µM: IC50 (curve of compound)

O=c1[nH]cc(F)c(=O)[nH]1 + Cc1[nH]c2ccc(F)cc2c1-c1nc2c3cccnc3c3ncccc3c2[nH]1
> 10 µM: IC50 [1] | IC50 [2] | IC50 [3] | IC50 [4] | IC50 [5] | IC50 [6]
inactive: viability, T/C [7] 97.7% | viability, T/C [8] 107% | viability, T/C [9] 107% | viability, T/C [10] 95.4% | viability, T/C [11] 86% | viability, T/C [12] 71.8% | viability, T/C [13] 108% | viability, T/C [14] 89.7% | viability, T/C [15] 96.4% | viability, T/C [16] 98.8% | viability, T/C [17] 91.4% | viability, T/C [18] 70.6% | viability, T/C [19] 95.2% | viability, T/C [20] 95.6% | viability, T/C [21] 94% | viability, T/C [22] 90.6% | viability, T/C [23] 93.4% | viability, T/C [24] 71.4% | viability, T/C [25] 91.3% | viability, T/C [26] 101% | viability, T/C [27] 90.6% | viability, T/C [28] 88.4% | viability, T/C [29] 84.5% | viability, T/C [30] 73.3% | viability, T/C [31] 77.1% | viability, T/C [32] 71.7% | viability, T/C [33] 75.5% | viability, T/C [34] 73.2% | viability, T/C [35] 71.2% | viability, T/C [36] 56.9% | viability, T/C [37] 70.5% | viability, T/C [38] 73% | viability, T/C [39] 71.9% | viability, T/C [40] 73% | viability, T/C [41] 71.8% | viability, T/C [42] 55.9%

Cc1[nH]c2ccccc2c1CCNCc1ccc(/C=C/C(=O)NO)cc1
0.0613 µM and 0.0596 µM and 0.0611 µM: IC50 (curve of compound)
inactive: viability, T/C (compound 0.000999 µM) 101% and 103% and 102% | viability, T/C (compound 0.00316 µM) 85.1% and 98.6% and 81.7% | viability, T/C (compound 0.00999 µM) 77.8% and 64.2% and 81.9% | viability, T/C (compound 0.0316 µM) 61.1% and 69.2% and 57.3% | viability, T/C (compound 0.0999 µM) 43% and 39.6% and 43.9% | viability, T/C (compound 0.316 µM) 18.1% and 22.3% and 22.9%

CC(=O)O[C@H]1C(=O)[C@@]2(C)[C@H]([C@H](OC(=O)c3ccccc3)[C@]3(O)C[C@H](OC(=O)[C@H](O)[C@@H](NC(=O)c4ccccc4)c4ccccc4)C(C)=C1C3(C)C)[C@]1(OC(C)=O)CO[C@@H]1C[C@@H]2O
< 0.0316 µM: IC50 (curve of compound)
inactive: viability, T/C (compound 0.0316 µM) 47.5% and 49.6% and 46.9% | viability, T/C (compound 0.1 µM) 22.7% and 22.6% and 27.5% | viability, T/C (compound 0.316 µM) 18.4% and 21% and 21.7% | viability, T/C (compound 1 µM) 20.4% and 20% and 23.4% | viability, T/C (compound 3.16 µM) 18.8% and 21.8% and 21.4% | viability, T/C (compound 10 µM) 19.4% and 21.5% and 20.4%
